Measurements: publication PMC6095874, “Discovery of cationic nonribosomal peptides as Gram-negative antibiotics through global genome mining” (Nature Communications, 2018)
≈ marks a conversion by molar mass, not a printed value. Where two headings read alike, the source gives them in different places. One block for each molecule: values may come before it. Where a SMILES comes first, the peptide text is derived from it. Bridges are numbered along the chain shown (N, C = ends). [ ]: non-standard residue; d: D form. The star is where a group is joined. Octanoyl(7-Me) = CC(C)CCCCCC(=O)*; dOrn = NCCC[C@@H](N)C(=O)O; X1 = CC[C@H](C)CCCCC(=O)*; Orn = NCCC[C@H](N)C(=O)O; Dab = NCC[C@H](N)C(=O)O

Assays:
[1] = system: Escherichia coli ATCC 25922; assay: microbe, parasite or virus in culture; format: cell-based; conditions: for MIC, Ec: Supplementary Table 1, Ec = Escherichia coli ATCC 25922
Procedure: (§1) MIC was determined by broth microdilution according to CLSI guidelines. The test medium for most species was Mueller–Hinton broth (MHB). Bacteria were grown overnight to early stationary phase and adjusted in MHB to 5.0 × 10^5 c.f.u. mL^−1 in the wells of 96-well microtiter plates (Falcon® 96-Well Flat-Bottom Microplate, Tissue Culture-Treated), mixed with varying concentrations of test compounds and incubated at 37 °C for 24 h. Cell growth was evaluated by measuring the optical density at 595 nm (Thermo Scientific Multiskan FC multiplate photometer) (Waltham, MA, USA), and the MIC was defined as the lowest compound concentration at which no bacterial growth was observed. MHBs containing 10% fetal bovine serum (Gibco), 21 mM MgCl, or 1.0 mg mL^−1 LPS (lipopolysaccharides from E. coli O55:B5, Sigma-Aldrich) was used to test their inhibitory effects.

[2] = system: Colistin-resistant E. coli (E. coli ATCC 25922 carrying mcr-1); assay: MIC by broth microdilution; format: cell-based, Escherichia coli; conditions: MHB, 37 °C, 24 h
Procedure: as §1

[3] = system: Bacillus subtilis 168; assay: MIC by broth microdilution; format: cell-based; conditions: Supplementary Table 1; Bs = B. subtilis 168
Procedure: as §1

[4] = system: Enterobacter cloacae NRRL-B-413; assay: MIC by broth microdilution; format: cell-based; conditions: Supplementary Table 1; En = Enterobacter cloacae NRRL-B-413
Procedure: as §1

[5] = system: Acinetobacter baumannii; assay: MIC by broth microdilution; format: cell-based; conditions: Supplementary Table 1
Procedure: as §1

[6] = system: Klebsiella pneumoniae NRRL-B-408; assay: MIC by broth microdilution; format: cell-based; conditions: Supplementary Table 1; Kp = Klebsiella pneumoniae NRRL-B-408
Procedure: as §1

[7] = system: Candida albicans; format: cell-based
[8] = system: Pseudomonas aeruginosa PAO1; format: cell-based; conditions: for MIC, Pa: Supplementary Table 1, Pa = Pseudomonas aeruginosa PAO1
Procedure: as §1

[9] = system: Staphylococcus aureus (MRSA); format: cell-based
Procedure: as §1

[10] = system: E. cloacae NRRL-B-425; format: cell-based, Enterobacter cloacae
Procedure: as §1

[11] = system: E. coli TOP10 cells; assay: Time-kill assay; format: cell-based, Escherichia coli; conditions: for cell viability in time-kill assay: ten times the MIC, early exponential cells, room temperature, c.f.u. counts, triplicate
Procedure: (§2) An overnight culture of E. coli TOP10 cells was diluted 1:10,000 in MHB and incubated at 37 °C with agitation at 180 rpm for 2 h (early exponential). The bacteria were then challenged with brevicidine (20 μg mL^−1), laterocidine (20 μg mL^−1), or polymyxin B (10 μg mL^−1) at ten times the MIC at room temperature without shaking. An untreated sample of cells was used as a negative control. At intervals, 10 μL aliquots were removed, centrifuged at 10,000 × g for 1 min and resuspended in 1.0 mL of sterile PBS. Tenfold serially diluted suspensions were plated on MHB agar plates and incubated at 37 °C overnight. Colonies were counted and the number of c.f.u. per mL was calculated. For analysis of lysis, 300 μL of culture (OD600 = 1.0) were treated with antibiotics at ten times the MIC for 24 h. Experiments were performed in triplicate.

[12] = system: Saccharomyces cerevisiae; format: cell-based
[13] = system: K. pneumoniae NRRL-B-3521; format: cell-based, Klebsiella pneumoniae
Procedure: as §1

[14] = Peptide binding to LPS by isothermal titration calorimetry; set-up: species or system Escherichia coli; conditions: 37 °C, 20 mM HEPES pH 7.0
Procedure: Microcalorimetric experiments of peptide binding to LPS were performed on an MCS isothermal titration calorimeter (Microcal, Northampton, MA) at 37 °C. LPS was prepared as a 50 µM aqueous suspension in 20 mM HEPES buffer (pH 7.0) by suspension, sonication, and temperature cycling between 5 and 70 °C. This suspension was stored at 4 °C overnight prior to use. Aliquots of 100 µM peptide solutions (brevicidine and polymyxin B) were prepared in the same buffer and all solutions were degassed prior to use by stirring under vacuum for 5 min at 37 °C. After thermal equilibration, 5 µL aliquots of the peptide solution were added every 3 min into the lipid-containing cell at 37 °C with constant stirring. The change in heat during the titration steps was registered in real time and raw data were processed using the Origin® 7 software provided with the instrument. In control experiments, the corresponding peptide solution (or LPS solution) was injected into the buffer without LPS (or without peptide).

[15] = system: E. coli TOP10 cells; assay: Bacterial growth kinetics; format: cell-based, Escherichia coli; conditions: OD600 of cells exposed to antibiotics (Fig. 4: two times the MIC)
Procedure: A single fresh colony of E. coli TOP10 cells was inoculated into MHB (5 mL) and grown with shaking at 225 rpm overnight. The bacteria were diluted to 1 × 10^5 c.f.u. mL^−1 in fresh MHB, grown […] to early log-phase (OD600 = 0.15) and treated with the antibiotics of interest in the wells of a 96-well plate. Final antibiotic concentrations varied from one to eight times the MIC. The plate was then incubated at 30 °C overnight, with OD600 measurements taken every 30 s.

[16] = system: Gram-negative bacteria; format: cell-based
Procedure: as §1

[17] = system: Human HeLa cells; conditions: concentrations up to 128 μg mL^−1, 48 h, 37 °C, MTT, absorbance 570 nm
Procedure: Human HeLa cells were used in the assay. Ninety μL of 1 × 10^5 mL^−1 cells were placed into the wells of 96-microwell plates. After 12 h, 10 μL of a medium containing test compounds at various concentrations were added to the cells which were then incubated at 37 °C for 48 h. Afterward, the supernatant was removed and 20 μL of MTT (3-(4,5-Dimethylthiazol-2-yl)-2,5-Diphenyltetrazolium Bromide) (2.5 mg mL^−1) in PBS were added to each well. After incubation at 37 °C for 3 h, 80 μL of dimethyl sulfoxide (DMSO) were added to each well and incubated for an additional 15 min. The absorbance was then measured at 570 nm with a Thermo Scientific Multiskan FC multiplate photometer.

[18] = system: E. coli ATCC 25922; assay: Resistance acquisition during serial passaging; format: cell-based, Escherichia coli; conditions: subinhibitory concentrations, 30-day period, MHB, 37 °C, quadruplicate
Procedure: E. coli ATCC 25922 was inoculated into MHB overnight at 37 °C with continuous shaking. Cells were diluted 10,000 times in MHB to about 1 × 10^6 c.f.u. mL^−1. Ten µL aliquots were drawn to a 96-well plate containing 90 µL of serially diluted brevicidine, laterocidine, and ciprofloxacin, at final concentrations of 0.5×, 1×, 1.5×, 2×, and 4× MIC. […] Plates with bacteria were incubated at 37 °C without shaking. […] This process was repeated for 30 days, and the final MIC was confirmed by the same antibacterial assay as the one described above. The experiment was performed in quadruplicate, and on each day, the sample that developed the highest resistance was measured to plot the curve. For single-step resistance, E. coli ATCC 25922 cells at 10^8 c.f.u. were plated onto Mueller–Hinton agar containing 4× MIC of brevicidine.

[19] = system: rabbit erythrocytes; conditions: concentrations up to 128 μg mL^−1, 2% (v/v) rabbit erythrocytes in PBS, 1 h, 37 °C, absorbance 570 nm, vs 10% Triton X-100
Procedure: Hemolytic activity was determined with red blood cells freshly isolated from healthy rabbits. […] The cells were incubated for 1 h at 37 °C and centrifuged for 5 min at 10,000 × g. The supernatant was transferred to a 96-well plate and the absorbance was measured at a wavelength of 570 nm with a Thermo Scientific Multiskan FC multiplate photometer. The absorbance relative to the positive control, which was treated with 10% Triton X-100, was defined as the percentage of hemolysis.

[20] = system: E. coli; assay: Lysis assay; format: cell-based, Escherichia coli; conditions: ten times the MIC, culture OD600 = 1.0, 24 h
Procedure: as §2

[21] = system: E. coli ATCC 25922; assay: Neutropenic mouse thigh infection model; format: in vivo; conditions: laterocidine 15 mg kg^−1 twice s.c., five mice, after 26 h, Mann–Whitney P < 0.01
Procedure: Given the low risk of resistance and the attractive mode of action of 1–2, an animal efficacy study was then performed in a mouse thigh model. Mice were intramuscularly infected with 1.50 × 10^6 c.f.u. of E. coli ATCC 25922. Two hours post infection, brevicidine (30 mg kg^−1) or laterocidine (15 mg kg^−1) was subcutaneously injected at two doses. […] In particular, compound 1 was highly efficacious in mice infected with E. coli and caused a 5 log10 reduction in c.f.u. in the thigh compared to the vehicle control after 24 h (Fig. 4f).
In vivo activities of brevicidine and laterocidine were tested using the mouse thigh infection model. Animal studies were performed by Pharmacology Discovery Services Taiwan Ltd. in general accordance with standard guidelines on animal welfare[38] in an AAALAC-accredited facility. The protocol was reviewed and approved by the Institutional Animal Care and Use Committee. Groups of five female-specific pathogen-free ICR (CD-1) mice weighing 22 ± 2 g (~5 weeks of age) were used. Animals were immunosuppressed with two intraperitoneal injections of cyclophosphamide, the first at 150 mg kg^−1 4 days before infection (day −4) and the second at 100 mg kg^−1 1 day before infection (day −1). On day 0, animals were inoculated intramuscularly (0.1 mL per thigh) in the right thigh with an E. coli ATCC 25922 suspension. Vehicle (10% DMSO, 1% Tween 80, 0.9% NaCl) and antibiotics were then subcutaneously injected 2 and 8 h later. Due to the limited availability of compounds 1–2, only one concentration of 1 (30 mg kg^−1) or 2 (15 mg kg^−1) was used in the present study. Precisely 26 h after inoculation, animals were euthanized by CO2 asphyxiation before their right thigh muscles were harvested. The removed muscles were homogenized in 5 mL of PBS, pH 7.4, with a Polytron homogenizer. Homogenates in the amount of 0.1 mL were used for serial tenfold dilutions and plated onto a nutrient agar medium for colony count (in c.f.u. g^−1) determination. No randomization or blinding was necessary for the animal infection models, and no samples were excluded.

[22] = broth microdilution, MHB, 37 °C, 24 h

- MIC ([1]; Escherichia coli, ATCC25922, positive control of the mouse thigh model infected with E. coli ATCC 25922, strain for MIC not stated explicitly, read-out: MIC): 0.032 µg/mL (≈ 0.0886 µM)
SMILES: C[C@H]1COc2c(N3CCN(C)CC3)c(F)cc3c(=O)c(C(=O)O)cn1c23 [Levofloxacin]

SMILES: CC[C@H](C)CCCCC(=O)N[C@@H](CCN)C(=O)N[C@H](C(=O)N[C@@H](CCN)C(=O)N[C@H]1CCNC(=O)[C@H]([C@@H](C)O)NC(=O)[C@H](CCN)NC(=O)[C@H](CCN)NC(=O)[C@H](CC(C)C)NC(=O)[C@@H](Cc2ccccc2)NC(=O)[C@H](CCN)NC1=O)[C@@H](C)O [Polymyxin B, reference compound] (X1-[Dab]T[Dab][Dab][Dab][dF]L[Dab][Dab]T; lactam 4-C (inferred); N-terminus assumed)
- MIC [2]: 16 µg/mL (≈ 13.3 µM)
- MIC, Bs [3]: 4 µg/mL (≈ 3.32 µM)
- MIC, En [4]: 8 µg/mL (≈ 6.65 µM)
- MIC, Ab [5]: 4 µg/mL (≈ 3.32 µM)
- MIC, Kp [6]: 16 µg/mL (≈ 13.3 µM)
- MIC ([7]; broth microdilution): >64 µg/mL
- MIC, Ec [1]: 1 µg/mL (≈ 0.831 µM)
- MIC, Pa [8]: 1 µg/mL (≈ 0.831 µM)
- MIC, MRSA ([9]; Supplementary Table 1, MRSA = Methicillin-resistant Staphylococcus aureus ATCC 43300): 32 µg/mL (≈ 26.6 µM)
- MIC [10, 22]: 64 µg/mL (≈ 53.2 µM)
- time to kill all cells in time-kill assay ([11]; ten times the MIC (polymyxin B 10 μg mL^−1)): ≤ 30 min
- cell viability in time-kill assay [11]: significantly reducing the viable cell population after 5 min
- MIC ([12]; broth microdilution): >64 µg/mL
- MIC [13, 22]: 2 µg/mL (≈ 1.66 µM)
- binding to LPS (ITC) [14]: strong binding to LPS

SMILES: CC[C@H](C)[C@@H]1NC(=O)[C@@H](NC(=O)[C@H](Cc2c[nH]c3ccccc23)NC(=O)[C@@H](CCCN)NC(=O)CNC(=O)[C@H](CCCN)NC(=O)[C@@H](CCCN)NC(=O)[C@@H](Cc2c[nH]c3ccccc23)NC(=O)[C@@H](Cc2ccc(O)cc2)NC(=O)[C@@H](CO)NC(=O)CCCCCC(C)C)[C@@H](C)OC(=O)CNC(=O)CNC(=O)[C@H](CC(N)=O)NC1=O [Compound 2, laterocidine] ({Octanoyl(7-Me)}-[dS][dY][dW][dOrn][Orn]G[dOrn]WTINGG; ester 9-C)
- MIC [2]: 2 µg/mL (≈ 1.25 µM)
- MIC, Bs [3]: 32 µg/mL (≈ 19.9 µM)
- MIC, En [4]: 2 µg/mL (≈ 1.25 µM)
- MIC, Ab [5]: 4 µg/mL (≈ 2.49 µM)
- MIC, Kp [6]: 4 µg/mL (≈ 2.49 µM)
- MIC ([7]; 24 h): >64 µg/mL
- MIC, Ec [1]: 2 µg/mL (≈ 1.25 µM)
- growth kinetics of E. coli cells exposed to compound [15]: grew at a reduced rate for 30 min
- MIC, Pa [8]: 2 µg/mL (≈ 1.25 µM)
- MIC ([9]; 24 h): >64 µg/mL
- MIC values against Gram-negative bacteria ([16]; 24 h): 0.66 to 10.5 µM
- MIC values against Gram-negative bacteria ([16]; range over Gram-negative strains incl. P. aeruginosa and colistin-resistant E. coli): 1 to 16 µg/mL
- MIC ([10]; NRRL-B-425, 24 h): 2 µg/mL (≈ 1.25 µM)
- toxicity against the human cell line HeLa [17]: nor showed significant toxicity
- resistance development during serial passaging [18]: did not develop resistance
- bactericidal action against E. coli ([11]; as revealed by growth kinetics, time-kill assay and lysis assay): bactericidal
- cell viability in time-kill assay [11]: significant reduction after 30 min
- lysis of erythrocytes (hemolysis) [19]: neither caused the lysis of erythrocytes
- MIC ([12]; 24 h): >64 µg/mL
- MIC ([13]; NRRL-B-3521, 24 h): 4 µg/mL (≈ 2.49 µM)
- lysis of E. coli cells [20]: completely lysed
- viable bacteria in thigh [21]: reduced number of viable bacteria

SMILES: O=C(O)c1cn(C2CC2)c2cc(N3CCNCC3)c(F)cc2c1=O [ciprofloxacin, reference compound]
- resistance development during serial passaging [18]: developed resistance

SMILES: CC[C@H](C)CCCCC(=O)N[C@@H](CCN)C(=O)N[C@H](C(=O)N[C@@H](CCN)C(=O)N[C@H]1CCNC(=O)[C@H]([C@@H](C)O)NC(=O)[C@H](CCN)NC(=O)[C@H](CCN)NC(=O)[C@H](CC(C)C)NC(=O)[C@@H](CC(C)C)NC(=O)[C@H](CCN)NC1=O)[C@@H](C)O [Colistin, reference compound] (X1-[Dab]T[Dab][Dab][Dab][dL]L[Dab][Dab]T; lactam 4-C (inferred); N-terminus assumed)
- MIC [2]: 16 µg/mL (≈ 13.7 µM)
- MIC ([1]; broth microdilution (CLSI), MHB, 5.0 × 10^5 c.f.u. mL^−1, 37 °C, 24 h, OD 595 nm): 2 µg/mL (≈ 1.71 µM)
- MIC [8, 22]: 1 µg/mL (≈ 0.855 µM)
